The numbers were not newly measured in US20090215818A1, “THIOZOLIDINEDIONE DERIVATIVES AS PI3 KINASE INHIBITORS” (SmithKline Beecham Corporation, priority 2006, published 2009), which cites them from elsewhere.

Read-outs that look alike come from different tables or passages of the source.

What is called IC50 is the concentration needed to halve the response being measured.

One series deals with Class I PI3-kinases. The settings on record: each of the Class I PI3-kinases.
A further series concerns the target CK2 protein kinase (Homo sapiens, UniProt P68400).

Sequence of CK2 protein kinase (P68400 whole entry): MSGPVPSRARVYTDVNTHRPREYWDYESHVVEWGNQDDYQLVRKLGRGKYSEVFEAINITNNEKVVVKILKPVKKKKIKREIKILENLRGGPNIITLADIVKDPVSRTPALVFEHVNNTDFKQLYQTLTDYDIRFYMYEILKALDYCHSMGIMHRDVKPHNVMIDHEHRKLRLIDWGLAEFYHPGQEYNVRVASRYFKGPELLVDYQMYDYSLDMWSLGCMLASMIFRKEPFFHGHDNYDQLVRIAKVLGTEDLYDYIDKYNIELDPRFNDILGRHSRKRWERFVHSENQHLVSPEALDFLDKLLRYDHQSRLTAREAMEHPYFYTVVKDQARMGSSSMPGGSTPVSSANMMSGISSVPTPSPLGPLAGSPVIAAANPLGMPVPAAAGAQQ

Turning to `O=c1cc(N2CCOCC2)oc2c(-c3ccccc3)cccc12` [LY294002], the IC50 is 15 to 20 µM with Class I PI3-kinases (Fruman et al. 1998, read-out: IC50 against each of these PI3-kinases) and 5 to 10 µM on CK2 protein kinase.

Turning to wortmannin, the IC50 with Class I PI3-kinases (read-out: IC50 against each of the various Class I PI3-kinases) is 0.001 to 0.01 µM.
